# From the NIST ThermoML archive (doi:10.1016/j.jct.2011.10.014)
# Numbers after ± are expanded uncertainties.
# Conditions: 101.33 kPa, Crystal, Vacuum adiabatic calorimetry
smiles,measurement,setting,value
O=C([O-])[O-].[Pb+2] [lead(II) carbonate],molar entropy,5 K,0.0215 ± 0.015 J/K/mol
same,molar entropy,10 K,0.2771 ± 0.018 J/K/mol
same,molar entropy,15 K,1.17 ± 0.027 J/K/mol
same,molar entropy,20 K,2.745 ± 0.038 J/K/mol
same,molar entropy,25 K,4.823 ± 0.048 J/K/mol
same,molar entropy,30 K,7.25 ± 0.082 J/K/mol
same,molar entropy,35 K,9.921 ± 0.09 J/K/mol
same,molar entropy,40 K,12.76 ± 0.1 J/K/mol
same,molar entropy,45 K,15.72 ± 0.11 J/K/mol
same,molar entropy,50 K,18.76 ± 0.12 J/K/mol
same,molar entropy,55 K,21.83 ± 0.13 J/K/mol
same,molar entropy,60 K,24.93 ± 0.14 J/K/mol
same,molar entropy,65 K,28.02 ± 0.14 J/K/mol
same,molar entropy,70 K,31.09 ± 0.15 J/K/mol
same,molar entropy,75 K,34.13 ± 0.16 J/K/mol
same,molar entropy,80 K,37.12 ± 0.17 J/K/mol
same,molar entropy,85 K,40.07 ± 0.18 J/K/mol
same,molar entropy,90 K,42.97 ± 0.36 J/K/mol
same,molar entropy,95 K,45.81 ± 0.37 J/K/mol
same,molar entropy,100 K,48.59 ± 0.37 J/K/mol
same,molar entropy,110 K,53.97 ± 0.38 J/K/mol
same,molar entropy,120 K,59.11 ± 0.39 J/K/mol
same,molar entropy,130 K,64.03 ± 0.4 J/K/mol
same,molar entropy,140 K,68.74 ± 0.4 J/K/mol
same,molar entropy,150 K,73.25 ± 0.41 J/K/mol
same,molar entropy,160 K,77.6 ± 0.42 J/K/mol
same,molar entropy,170 K,81.78 ± 0.42 J/K/mol
same,molar entropy,180 K,85.81 ± 0.43 J/K/mol
same,molar entropy,190 K,89.7 ± 0.43 J/K/mol
same,molar entropy,200 K,93.46 ± 0.44 J/K/mol
same,molar entropy,210 K,97.11 ± 0.45 J/K/mol
same,molar entropy,220 K,100.6 ± 0.5 J/K/mol
same,molar entropy,230 K,104.1 ± 0.5 J/K/mol
same,molar entropy,240 K,107.4 ± 0.5 J/K/mol
same,molar entropy,250 K,110.7 ± 0.5 J/K/mol
same,molar entropy,260 K,113.9 ± 0.5 J/K/mol
same,molar entropy,270 K,117 ± 0.5 J/K/mol
same,molar entropy,273.15 K,118 ± 0.5 J/K/mol
same,molar entropy,280 K,120.1 ± 0.5 J/K/mol
same,molar entropy,290 K,123 ± 0.5 J/K/mol
same,molar entropy,298.15 K,125.4 ± 0.7 J/K/mol
same,molar entropy,300 K,126 ± 0.5 J/K/mol
same,molar entropy,310 K,128.9 ± 0.5 J/K/mol
same,molar entropy,320 K,131.7 ± 0.5 J/K/mol
